Data set [1] in a line: LogD (HPLC). The data set is classed as physicochemical. The settings on record: by HPLC; Table 2.
Data set [2] deals with T1, human recombinant A3AR (expressed in HEK-293 cells) (Homo sapiens, UniProt P0DMS8).
T1 construct: host or cells: HEK-293 cells
T1 sequence (P0DMS8 1-318): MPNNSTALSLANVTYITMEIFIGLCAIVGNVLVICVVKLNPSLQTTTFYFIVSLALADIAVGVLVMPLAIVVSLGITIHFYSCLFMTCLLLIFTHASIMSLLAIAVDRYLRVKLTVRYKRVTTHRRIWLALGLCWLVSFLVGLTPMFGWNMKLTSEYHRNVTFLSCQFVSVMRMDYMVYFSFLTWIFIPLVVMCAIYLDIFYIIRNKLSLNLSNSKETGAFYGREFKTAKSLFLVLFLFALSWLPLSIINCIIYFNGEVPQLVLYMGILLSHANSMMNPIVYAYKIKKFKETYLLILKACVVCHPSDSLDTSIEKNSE
Kind of data set: Adenosine receptors antagonism assay (Eurofins), [125I]-AB-MECA radioligand competition. It is filed as binding. For orientation: Loss of bound radioactivity is the signal in a displacement assay; it reports binding, not function.

Where [3] appears, read: [125I]-AB-MECA 0.15 nM, r.t., 120 min; IC50 from dose-response curves; read-out: Potency Class A3AR.
The mark [4] stands for this setting: read-out: Potency Class A3AR; [125I]-AB-MECA 0.15 nM, r.t., 120 min; IC50 from dose-response curves.

Where two headings read alike, the source gives them in different places. Where only a bound is given, the exact number is not on record here.

As a reminder, the chromatographic logD is a lipophilicity value derived from retention on a column. Lower therefore signals a more hydrophilic compound. `CC(C)c1nnc2c(NCc3ccccc3)cc(NCc3ccncc3)nn12` [compound 133, N8-benzyl-3-isopropyl-N6-(4-pyridylmethyl)-[1,2,4]triazolo[4,3-b]pyridazine-6,8-diamine] registered a chromatographic logD in data set [1] of 2.36. The IC50 in data set [2] (setting [3]) lay within 100 to 1000 nM. In the case of `CC(C)c1nnc2c(NCc3ccccc3)cc(NCC3CCOCC3)nn12` [compound 125, N8-benzyl-3-isopropyl-N6-(tetrahydropyran-4-ylmethyl)-[1,2,4]triazolo[4,3-b]pyridazine-6,8-diamine], in data set [1], the chromatographic logD stood at 2.74. Besides, in data set [2] (setting [3]), the IC50 lay in the range of 100 to 1000 nM. In the case of `CC(C)c1nnc2c(NCc3ccccc3)cc(NCC3CCCCC3)nn12` [compound 124, N8-benzyl-N6-(cyclohexylmethyl)-3-isopropyl-[1,2,4]triazolo[4,3-b]pyridazine-6,8-diamine], the chromatographic logD in data set [1] amounted to 4.6. Moreover, the IC50 in data set [2] (setting [3]) was in the range of 10 to 100 nM.

Molecule `CC(C)c1nnc2c(NCc3ccccc3)cc(NCc3cnn(C)c3)nn12` [compound 140, N8-benzyl-3-isopropyl-N6-[(1-methylpyrazol-4-yl)methyl]-[1,2,4]triazolo[4,3-b]pyridazine-6,8-diamine] displayed a chromatographic logD in data set [1] of 2.3. In addition, the IC50 in data set [2] (setting [3]) fell in the range of 10 to 100 nM.

In the case of `CC(C)c1nnc2c(NCc3ccccc3)cc(NCCc3ccccc3)nn12` [compound 127, N8-benzyl-3-isopropyl-N6-(2-phenylethyl)-[1,2,4]triazolo[4,3-b]pyridazine-6,8-diamine], the chromatographic logD in data set [1] was 3.78. Also, in data set [2] (setting [3]), the IC50 lay in the range of 10 to 100 nM. For the molecule `CC(C)c1nnc2c(NCc3ccccc3)cc(NC3CCCCC3)nn12` [compound 119, N8-benzyl-N6-cyclohexyl-3-isopropyl-[1,2,4]triazolo[4,3-b]pyridazine-6,8-diamine], the chromatographic logD in data set [1] was determined as 4.17. Also, in data set [2] (setting [3]), the IC50 lay in the range of 10 to 100 nM.

In data set [1], `CC(C)c1nnc2c(NCc3ccccc3)cc(NC3CCCCC3O)nn12` (racemic) [compound 134, racemic trans-2-[[8-(benzylamino)-3-isopropyl-[1,2,4]triazolo[4,3-b]pyridazin-6-yl]amino]cyclohexanol] displayed a chromatographic logD of 2.73. Also, the IC50 in data set [2] (setting [4]) was in the range of 10 to 100 nM.

For `CC(C)c1nnc2c(NCc3ccccc3)cc(NCc3cccnc3)nn12` [compound 132, N8-benzyl-3-isopropyl-N6-(3-pyridylmethyl)-[1,2,4]triazolo[4,3-b]pyridazine-6,8-diamine], the chromatographic logD in data set [1] is 2.36. Also, the IC50 in data set [2] (setting [3]) was in the range of 10 to 100 nM. Molecule `CC(C)c1nnc2c(NCc3ccccc3)cc(NC3CCC3)nn12` [compound 117, N8-benzyl-N6-cyclobutyl-3-isopropyl-[1,2,4]triazolo[4,3-b]pyridazine-6,8-diamine] returned a chromatographic logD in data set [1] of 3.47. Also, the IC50 in data set [2] (setting [3]) was in the range of 10 to 100 nM. In turn, `CC(C)c1nnc2c(NCc3ccccc3)cc(NCc3ccccc3)nn12` [compound 130, N6,N8-dibenzyl-3-isopropyl-[1,2,4]triazolo[4,3-b]pyridazine-6,8-diamine] yielded a chromatographic logD in data set [1] of 3.5. Further, the IC50 in data set [2] (setting [3]) fell in the range of 1 to 10 nM. Regarding `Cc1cnc(CNc2cc(NCc3ccccc3)c3nnc(C(C)C)n3n2)cn1` [compound 139, N8-benzyl-3-isopropyl-N6-[(5-methylpyrazin-2-yl)methyl]-[1,2,4]triazolo[4,3-b]pyridazine-6,8-diamine], the chromatographic logD in data set [1] came out at 2.3. For the same molecule, the IC50 in data set [2] (setting [3]) was in the range of 100 to 1000 nM. Turning to `CC(C)c1nnc2c(NCc3ccccc3)cc(N[C@H]3CC[C@H](O)CC3)nn12` [(135), racemic trans-4-[[8-(benzylamino)-3-isopropyl-[1,2,4]triazolo[4,3-b]pyridazin-6-yl]amino]cyclohexanol], the chromatographic logD in data set [1] amounted to 2.22.

In turn, `Cc1cc(C)cc(CNc2cc(NCc3ccccc3)c3nnc(C(C)C)n3n2)c1` [compound 141, N8-benzyl-N6-[(3,5-dimethylphenyl)methyl]-3-isopropyl-[1,2,4]triazolo[4,3-b]pyridazine-6,8-diamine] registered a chromatographic logD in data set [1] of 4.2. For the same molecule, the IC50 in data set [2] (setting [3]) is 100 to 1000 nM. In turn, `CC(C)c1nnc2c(NCc3ccccc3)cc(NCc3nccn3C)nn12` [compound 129, N8-benzyl-3-isopropyl-N6-[(1-methylimidazol-2-yl)methyl]-[1,2,4]triazolo[4,3-b]pyridazine-6,8-diamine] had a chromatographic logD in data set [1] of 1.95. Besides, the IC50 in data set [2] (setting [3]) was 100 to 1000 nM. As for `CC(C)c1nnc2c(NCc3ccccc3)cc(NCC3CCCO3)nn12` (racemic) [compound 142, N8-benzyl-3-isopropyl-N6-(tetrahydrofuran-2-ylmethyl)-[1,2,4]triazolo[4,3-b]pyridazine-6,8-diamine], in data set [1], the chromatographic logD was 2.87. Besides, in data set [2] (setting [3]), the IC50 lay within 100 to 1000 nM. The like results for `CC(C)c1nnc2c(NCc3ccccc3)cc(NC3CCCC3)nn12` [compound 118, N8-benzyl-N6-cyclopentyl-3-isopropyl-[1,2,4]triazolo[4,3-b]pyridazine-6,8-diamine] were, in that order, 3.84 and 1 to 10 nM. In data set [1], `CC(C)c1nnc2c(NCc3ccccc3)cc(NC34CC5CC(CC(C5)C3)C4)nn12` [compound 137, N6-(1-adamantyl)-N8-benzyl-3-isopropyl-[1,2,4]triazolo[4,3-b]pyridazine-6,8-diamine] displayed a chromatographic logD of 5.02. Also, the IC50 in data set [2] (setting [3]) lay within 100 to 1000 nM.

On to `Cc1cc(C)nc(CNc2cc(NCc3ccccc3)c3nnc(C(C)C)n3n2)n1` [compound 145, N8-benzyl-N6-[(4,6-dimethylpyrimidin-2-yl)methyl]-3-isopropyl-[1,2,4]triazolo[4,3-b]pyridazine-6,8-diamine], for which the chromatographic logD in data set [1] amounted to 2.52. Further, the IC50 in data set [2] (setting [3]) fell in the range of 100 to 1000 nM. For the molecule `CC(C)c1nnc2c(NCc3ccccc3)cc(NC3CCCCCC3)nn12` [compound 121, N8-benzyl-N6-cycloheptyl-3-isopropyl-[1,2,4]triazolo[4,3-b]pyridazine-6,8-diamine], the chromatographic logD in data set [1] was found to be 4.57. Also, the IC50 in data set [2] (setting [3]) fell in the range of 10 to 100 nM.

In turn, `CC(C)c1nnc2c(NCc3ccccc3)cc(NCCOc3ccccc3)nn12` [compound 128, N8-benzyl-3-isopropyl-N6-(2-phenoxyethyl)-[1,2,4]triazolo[4,3-b]pyridazine-6,8-diamine] came in with a chromatographic logD in data set [1] of 3.68. In addition, the IC50 in data set [2] (setting [3]) was 100 to 1000 nM. As to `CC(C)c1nnc2c(NCc3ccccc3)cc(NCC3(C)CCCCC3)nn12` [compound 136], the chromatographic logD in data set [1] was 4.88. Also, in data set [2] (setting [4]), the IC50 is 10 to 100 nM.

As to `CC(C)c1nnc2c(NCc3ccccc3)cc(NC3CCOCC3)nn12` [compound 23, N8-benzyl-3-isopropyl-N6-tetrahydropyran-4-yl-[1,2,4]triazolo[4,3-b]pyridazine-6,8-diamine], the IC50 in data set [2] (setting [3]) lay in the range of 10 to 100 nM. Take `CC[C@H](CO)Nc1cc(Nc2cccnn2)c2nnc(C3CC3)n2n1` [compound 181, (R)-2-((3-cyclopropyl-8-(pyridazin-3-ylamino)-[1,2,4]triazolo[4,3-b]pyridazin-6-yl)amino)butan-1-ol]: in data set [2] (setting [3]), the IC50 is under 1 nM. In the case of `COC(=O)CCNc1cc(NCc2ccccc2)c2nnc(C(C)C)n2n1` [compound 28, methyl 3-[[8-(benzylamino)-3-isopropyl-[1,2,4]triazolo[4,3-b]pyridazin-6-yl]amino]propanoate], in data set [2] (setting [3]), the IC50 was 10 to 100 nM. Turning to `CCC(CC)CNc1cc(NCCc2ccccn2)c2nnc(C(C)C)n2n1` [compound 164, N6-(2-ethylbutyl)-3-isopropyl-N8-[2-(2-pyridyl)ethyl]-[1,2,4]triazolo[4,3-b]pyridazine-6,8-diamine], the IC50 in data set [2] (setting [3]) is under 1 nM.

The record behind these values is patent EP4477653A1 (Perha Pharmaceuticals, priority 2023, dated 2024).
